Test results as given in patent publication US8030547B2, “Gene coding for acetolactate synthase” (priority 2002, dated 2011).

Columns and labels:
[1] = molecular target: T1, GST fusion W548L mutant ALS protein (Oryza sativa subsp. japonica, UniProt Q6K2E8, W548L); test: Herbicide sensitivity of ALS protein expressed in E. coli (crude enzyme solution), W548L; type: biochemical, rice (Oryza sativa var. Kinmaze); details: for RS ratio: W548L mutant vs wild type
T1 construct: an expression vector having the full-length wild type ALS cDNA incorporated into the Eco RI site of pGEX-2T; made in house; host or cells: E. coli JM109, pGEX 2T(ALS-W548L mutant); crude supernatant
Method: (§1) ALS activity resulting from the mutant ALS protein contained in the eluted fractions apportioned into each test tube for apportioning was measured as follows. A reaction solution to be used in a measurement reaction was prepared by mixing an eluted fraction to be measured with a solution comprising 20 mM sodium pyruvate, 0.5 mM TPP, 0.5 mM MgCl2, 10 μM FAD and 20 mM potassium phosphate buffer (pH 7.5). One ml of this reaction solution was used. After the eluted fraction to be measured was added, the measurement reaction was performed at 30° C. for 40 to 60 minutes. Then, the reaction was stopped by addition of 0.1 ml of 6N sulfuric acid (or 0.25 N sodium hydroxide).
(§2) After the reaction was stopped, the reaction solution was incubated at 60° C. for 10 minutes, thereby converting acetolactate contained in the reaction solution to acetoin.
(§3) Then, to quantify acetoin contained in the reaction solution, 1 ml of 0.5% (w/v) creatine and 1 ml of 5% (w/v) α-naphthol dissolved in 2.5 N sodium hydroxide was added to the reaction solution, followed by incubation at 37° C. for 10 minutes. Acetoin was then quantified by color comparison of the absorbance (at 525 nm) of the reaction solution, thereby evaluating ALS activity. In addition, since the reaction solution contained a small amount of sodium pyruvate, reaction time 0 was used as control.
(§4) E. coli transformed with pGEX-2T(ALS-wild) constructed in Example 3(5), E. coli transformed with pGEX-2T(ALS-W548L mutant) constructed in Example 5, E. coli transformed with pGEX-2T(ALS-S627I mutant) constructed in Example 5, E. coli transformed with pGEX-2T(ALS P171H mutant) constructed in Example 6, E. coli transformed with pGEX-2T(ALS R172S mutant) constructed in Example 6, E. coli transformed with pGEX-2T(ALS P171H, R172S mutant) constructed in Example 7, E. coli transformed with pGEX-2T(ALS-P171H, W548L mutant) constructed in Example 8, E. coli transformed with pGEX-2T(ALS-P171H, S627I mutant) constructed in Example 8, and E. coli transformed with pGEX-2T(ALS-P171H, W548L, S627I mutant) constructed in Example 9 were respectively shake-cultured (pre-culture) at 27° C. in 2 ml of LB liquid medium containing ampicillin. These types of E. coli were respectively cultured in 250 ml of LB liquid medium containing ampicillin using 1 ml of the pre-culture solution. After culturing overnight, 1 mM IPTG was added to the media, and then culturing was performed for a further 3 to 4 hours, so that the expression of GST fusion protein was induced. In addition, the cells were stored at −80° C. after washing.
(§5) Preparation and purification of ALS from E. coli were performed by the following method. First, the pellet of the transformant E. coli stored at −80° C. was suspended in ALS extraction buffer (potassium phosphate buffer (pH 7.5) containing 30% glycerol and 0.5 mM MgCl2). Specifically, 2.5 ml of the buffer was added to the pellet obtained from 50 ml of the culture solution. The suspension was subjected to ultrasonication (Heat Systems-Ultrasonics, Sonicator W-225R, micro chip, output control 8, interval of approximately 1 second, twice (40 seconds each)), and subjected to centrifugation at 15000×g, 4° C. for 20 minutes, thereby obtaining the supernatant as a crude enzyme solution.
(§6) Herbicide sensitivity of the wild type ALS protein and that of mutant ALS protein were examined using the 9 types of crude enzyme solutions obtained in Example 10. Herbicide sensitivity test was performed according to procedures almost the same as those in Example 2. However, in this example, reaction temperature was 37° C., reaction time was 30 minutes, and 10 mM valine was added to the reaction solution to inhibit ALS activity derived from E. coli. Further, three types of herbicides, bispyribac-sodium, pyrithiobac-sodium, and pyriminobac, were used as PC herbicides; chlorsulfuron was used as a sulfonylurea herbicide; and imazaquin was used as an imidazolinon herbicide. […]

[2] = molecular target: T2, GST fusion P171H/W548L mutant ALS protein (Oryza sativa subsp. japonica, UniProt Q6K2E8, P171H/W548L); test: Herbicide sensitivity of ALS protein expressed in E. coli (crude enzyme solution), P171H/W548L; type: biochemical, rice (Oryza sativa var. Kinmaze); details: for RS ratio/ predicted RS ratio / Predicted RS ratio: P171H/W548L mutant; for RS ratio: P171H/W548L mutant vs wild type; for Predicted RS ratio: product of RS ratios of the 1-point mutants; for inhibition at 100 µM: read-out: inhibition % at the highest concentration among the concentrations tested, P171H/W548L mutant, in 100 μM
T2 construct: made in house; host or cells: E. coli, pGEX-2T(ALS-P171H, W548L mutant); crude supernatant
Method: as §1, §2, §3, §4, §5, §6

T2 sequence (Q6K2E8 44-644 P171H/W548L): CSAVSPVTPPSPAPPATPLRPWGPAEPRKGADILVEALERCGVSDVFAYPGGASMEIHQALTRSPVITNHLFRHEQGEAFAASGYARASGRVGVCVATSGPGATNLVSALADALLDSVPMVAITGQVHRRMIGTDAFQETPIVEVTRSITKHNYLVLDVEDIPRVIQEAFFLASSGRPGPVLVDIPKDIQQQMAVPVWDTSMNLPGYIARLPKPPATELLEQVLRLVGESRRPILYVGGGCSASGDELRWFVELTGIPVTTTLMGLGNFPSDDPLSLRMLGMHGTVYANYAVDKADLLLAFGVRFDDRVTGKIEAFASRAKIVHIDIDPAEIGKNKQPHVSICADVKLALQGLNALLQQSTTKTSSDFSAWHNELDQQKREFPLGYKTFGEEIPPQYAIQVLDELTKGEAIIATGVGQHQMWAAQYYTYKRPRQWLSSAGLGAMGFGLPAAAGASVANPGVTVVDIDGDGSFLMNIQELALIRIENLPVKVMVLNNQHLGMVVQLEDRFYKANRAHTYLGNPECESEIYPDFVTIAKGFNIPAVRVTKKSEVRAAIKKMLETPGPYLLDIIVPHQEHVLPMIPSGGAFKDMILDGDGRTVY
T1 sequence (Q6K2E8 44-644 W548L): as the sequence (Q6K2E8 44-644 P171H/W548L) above, with H128P counted along it

SMILES	IC50 [1]	RS ratio [1]	RS ratio/ predicted RS ratio [2]	RS ratio [2]	Predicted RS ratio [2]	inhibition at 100 µM [2]	inhibition at 100 µM ([1]; read-out: inhibition % at the highest concentration among the concentrations tested, W548L mutant, in 100 μM)
COc1nc(C)nc(NC(=O)NS(=O)(=O)c2ccccc2Cl)n1 [chlorsulfuron]	9.9 µM	760	>0.18	>7700	65000	16%	
COc1cc(OC)nc(Oc2cccc(Oc3nc(OC)cc(OC)n3)c2C(=O)O)n1 [bispyribac-sodium]	3.3 µM	520	>3.3	>15000	4500	5%	
CC(C)C1(C)N=C(c2nc3ccccc3cc2C(=O)O)NC1=O (centres unmarked) [imazaquin]		>45		>45	>68	13%	14%
